According to patent publication US20090239845A1, “PYRAZOLE COMPOUNDS AS PROSTAGLANDIN RECEPTORS LIGANDS” (priority 2005, published 2009):
Counter-ions that a name gives are not always drawn.

Target: T1, human prostanoid EP1 receptor (Homo sapiens, UniProt P34995)
T1 construct: expressed in transfected cells; host or cells: CHO-K1 (membrane fraction)
T1 sequence (P34995 1-402): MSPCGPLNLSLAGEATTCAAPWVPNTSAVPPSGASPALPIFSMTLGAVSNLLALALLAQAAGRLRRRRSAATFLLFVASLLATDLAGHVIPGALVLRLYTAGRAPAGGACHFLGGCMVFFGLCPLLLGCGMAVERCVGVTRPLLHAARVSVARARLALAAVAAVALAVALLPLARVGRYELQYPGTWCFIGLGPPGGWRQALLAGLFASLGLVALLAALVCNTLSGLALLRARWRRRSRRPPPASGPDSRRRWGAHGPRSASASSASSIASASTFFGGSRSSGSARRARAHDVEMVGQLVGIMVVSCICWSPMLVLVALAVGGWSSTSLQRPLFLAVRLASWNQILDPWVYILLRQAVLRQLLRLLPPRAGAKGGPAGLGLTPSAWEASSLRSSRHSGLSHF
Experiment: Binding assay for the human prostanoid EP1 receptor (competition with [3H]-PGE2)
Settings: negative logarithm10 of the IC50; competition with [3H]-PGE2, CHO-K1 cell membranes; averages of a number of experiments; read-out: pIC50 value (converted)
Protocol: Competition assay using [^3H]-PGE2.
Compound potencies are determined using a radioligand binding assay. In this assay compound potencies are determined from their ability to compete with tritiated prostaglandin E2 ([^3H]-PGE2) for binding to the human EP1 receptor.
This assay utilises Chinese hamster ovary-K1 (CHO-K1) cells into which a stable vector containing the EP1 cDNA has previously been transfected. Cells are cultured in suitable flasks containing culture medium such as DMEM:F-12 supplemented with 10% v/v foetal calf serum, 2 mM L-glutamine, 0.25 mg/ml geneticin, 10 μg/ml puromycin and 10 μM indomethacin.
Cells are detached from the culture flasks by incubation in calcium and magnesium free phosphate buffered saline containing 1 mM disodium ethylenediaminetetraacetic acid (Na2EDTA) and 10 μM indomethacin for 5 min. The cells are isolated by centrifugation at 250×g for 5mins and suspended in an ice cold buffer such as 50 mM Tris, 1 mM Na2EDTA, 140 mM NaCl, 10 μM indomethacin (pH 7.4). The cells are homogenised using a Polytron tissue disrupter (2×10s burst at full setting), centrifuged at 48,000×g for 20mins and the pellet containing the membrane fraction is washed (optional) three times by suspension and centrifugation at 48,000×g for 20mins. The final membrane pellet is suspended in an assay buffer such as 10 mM 2-[N-morpholino]ethanesulphonic acid, 1 mM Na2EDTA, 10 mM MgCl2 (pH 6). Aliquots are frozen at −80° C. until required.
For the binding assay the cell membranes, competing compounds and [^3H]-PGE2 (3 nM final assay concentration) are incubated in a final volume of 100 μl for 30 min at 30° C. All reagents are prepared in assay buffer. Reactions are terminated by rapid vacuum filtration over GF/B filters using a Brandell cell harvester. The filters are washed with ice cold assay buffer, dried and the radioactivity retained on the filters is measured by liquid scintillation counting in Packard TopCount scintillation counter.
The data are analysed using non linear curve fitting techniques to determine the concentration of compound producing 50% inhibition of specific binding (IC50).

| SMILES | IC50 [nM] |
| --- | --- |
| CNCc1ccc(NC(=O)c2cc(C)n(Cc3cc(Cl)ccc3OCC(C)C)n2)cc1 [Example 392, 1-({5-Chloro-2-[(2-methylpropyl)oxy]phenyl}methyl)-5-methyl-N-{4-[(methylamino)methyl]phenyl}-1H-pyrazole-3-carboxamide hydrochloride] | ≤ 10 |
| CCNCc1ccc(NC(=O)c2cc(C)n(Cc3cc(Cl)ccc3OCC(C)C)n2)cc1 [Example 393, 1-({5-Chloro-2-[(2-methylpropyl}oxy]phenyl}methyl)-N-{4-[(ethylamino)methyl]phenyl}-5-methyl-1H-pyrazole-3-carboxamide hydrochloride] | ≤ 10 |
| Cc1cc(NC(=O)CC(C)(C)C)nn1Cc1cc(Cl)ccc1OCc1ccc(Cl)cc1F [Example 136, N-{1-[(5-Chloro-2-{[(4-chloro-2-fluorophenyl)methyl]oxy}phenyl)methyl]-5-methyl-1H-pyrazol-3-yl}-3,3-dimethylbutanamide] | ≤ 10 |
| Cc1cc(C(=O)Nc2ccc(CNC(C)C)cc2)nn1Cc1cc(Cl)ccc1OCC(C)C [Example 395, 1-({5-Chloro-2-[(2-methylpropyl)oxy]phenyl}methyl)-5-methyl-N-(4-{[(1-methylethyl)amino]methyl}phenyl)-1H-pyrazole-3-carboxamide hydrochloride] | ≤ 10 |
| Cc1cc(NC(=O)CC2CCCCC2)nn1Cc1cc(Cl)ccc1OCc1ccccc1 [Example 154, N-[1-({5-Chloro-2-[(phenylmethyl)oxy]phenyl}methyl)-5-methyl-1H-pyrazol-3-yl]-2-cyclohexylacetamide] | ≤ 10 |
| CCN1CCN(Cc2ccc3[nH]c(-c4cnn(Cc5cc(Cl)ccc5OCC(C)C)c4C)nc3c2)CC1 [Example 382, 2-[1-({5-Chloro-2-[(2-methylpropyl)oxy]phenyl}meth-yl)-5-methyl-1H-pyrazol-4-yl]-5-[(4-ethyl-1-piperazinyl)methyl]-1H-benzimidazole trihydrochloride] | ≤ 10 |
| Cc1cc(-c2nc3ccc(N(C)C)cc3[nH]2)nn1Cc1cc(Cl)ccc1OCC(C)C [Example 473, 2-[1-({5-Chloro-2-[(2-methylpropyl)oxy]phenyl}methyl)-5-methyl-1H-pyrazol-3-yl]-N,N-dimethyl-1H-benzimidazol-5-amine dihydrochloride] | ≤ 10 |
| Cc1cc(C(=O)Nc2ccc(CN3CCOCC3)cc2)nn1Cc1cc(Cl)ccc1OCC(C)C [Example 398, 1-({5-Chloro-2-[(2-methylpropyl)oxy]phenyl}methyl)-5-methyl-N-[4-(4-morpholinylmethyl)phenyl]-1H-pyrazole-3-carboxamide hydrochloride] | ≤ 10 |
| Cc1cc(C(=O)Nc2c(F)cccc2F)nn1Cc1cc(Br)ccc1OCc1ccc(F)cc1F [Example 319, 1-[(5-Bromo-2-{[(2,4-difluorophenyl)methyl]oxy}phenyl)methyl]-N-(2,6-difluorophenyl)-5-methyl-1H-pyrazole-3-carboxamide] | ≤ 10 |
| Cc1cc(NC(=O)c2cccc3ccccc23)nn1Cc1cc(Cl)ccc1OCc1ccccc1 [Example 160, N-[1-({5-Chloro-2-[(phenylmethyl)oxy]phenyl}methyl)-5-methyl-1H-pyrazol-3-yl]-1-naphthalenecarboxamide] | ≤ 10 |
| Cc1cc(NC(=O)OC2CCOCC2)nn1Cc1cc(Br)ccc1OCc1ccc(Cl)cc1Cl [Example 30, Tetrahydro-2H-pyran-4-yl {1-[(5-bromo-2-{[(2,4-dichlorophenyl)methyl]oxy}phe-nyl)methyl]-5-methyl-1H-pyrazol-3-yl}carbamate] | ≤ 10 |
| Cc1cc(C(=O)Nc2ccc(CN(C)C)cc2)nn1Cc1cc(Cl)ccc1OCC(C)C [Example 394, 1-({5-Chloro-2-[(2-methylpropyl)oxy]phenyl}methyl)-N-{4-[(dimethylamino)methyl]phenyl}-5-methyl-1H-pyrazole-3-carboxamide hydrochloride] | ≤ 10 |
